Values after ≈ are worked out from the molar mass of the structure shown. Where two headings read alike, the source gives them in different places.
Key:
Type in all cases: cell-based
[1] = test system: E. coli ATCC25922; assay: MIC, microtiter-based liquid assay (CLSI); details: Escherichia coli
[2] = test system: E. coli 1705878; assay: MIC, microtiter-based liquid assay (CLSI); details: Escherichia coli, MDR strain
[3] = test system: E. coli MG1655 parent; assay: MIC, microtiter-based liquid assay (CLSI); details: Escherichia coli
[4] = test system: E. coli CAG12184 TolC; assay: MIC, microtiter-based liquid assay (CLSI); details: Escherichia coli, CAG12184TOLC
[5] = test system: S. pneumoniae 02J1175 Mef(A); assay: MIC, microtiter-based liquid assay (CLSI); details: Streptococcus pneumoniae
[6] = test system: S. aureus 11540 MRSA; assay: MIC, microtiter-based liquid assay (CLSI); details: Staphylococcus aureus
[7] = test system: K. pneumoniae 1705949; assay: MIC, microtiter-based liquid assay (CLSI); details: Klebsiella pneumoniae, MDR strain
[8] = test system: K. pneumoniae 1705966; assay: MIC, microtiter-based liquid assay (CLSI); details: Klebsiella pneumoniae
[9] = test system: A. baumannii 1705936; assay: MIC, microtiter-based liquid assay (CLSI); details: Acinetobacter baumannii, MDR strain
[10] = test system: A. baumannii 1705943; assay: MIC, microtiter-based liquid assay (CLSI); details: Acinetobacter baumannii
[11] = test system: P. aeruginosa ATCC27853; assay: MIC, microtiter-based liquid assay (CLSI); details: Pseudomonas aeruginosa
[12] = test system: P. aeruginosa 1705886; assay: MIC, microtiter-based liquid assay (CLSI); details: Pseudomonas aeruginosa
[13] = test system: P. aeruginosa 1705904; assay: MIC, microtiter-based liquid assay (CLSI); details: Pseudomonas aeruginosa, MDR strain
[14] = test system: E. faecium A6349 VanA + LNZ-R; assay: MIC, microtiter-based liquid assay (CLSI); details: Enterococcus faecium
[15] = test system: B. pseudomallei; assay: microbe, parasite or virus in culture; details: Burkholderia pseudomallei; for MIC50: read-out: B. pseudomallei MIC50; for MIC90: read-out: B. pseudomallei MIC90; for MIC: read-out: B. pseudomallei MIC Range
[16] = test system: B. anthracis; assay: microbe, parasite or virus in culture; details: Bacillus anthracis
[17] = test system: Y. pestis; assay: microbe, parasite or virus in culture; details: Yersinia pestis
[18] = test system: B. mallei; assay: microbe, parasite or virus in culture; details: Burkholderia mallei; for MIC50: read-out: B. mallei MIC50; for MIC90: read-out: B. mallei MIC90; for MIC: read-out: B. mallei MIC Range
[19] = test system: F. tularensis; assay: microbe, parasite or virus in culture; details: Francisella tularensis
[20] = ATCC25922, read-out: MIC E. coli ATCC25922 + 50% HS
[21] = ATCC25922, read-out: MIC E. coli ATCC25922

Structure (SMILES)	MIC [1, 20]	MIC [1, 21]	MIC [2]	MIC [3]	MIC [4]	MIC [5]	MIC [6]	MIC [7]	MIC [8]	MIC [9]	MIC [10]	MIC [11]	MIC [12]	MIC [13]	MIC [14]	MIC50 [15]	MIC90 [15]	MIC [15]	MIC50 [18]	MIC90 [18]	further results
C=CC[C@H](NCCCNC(=N)N)c1ccc(-n2cc3cc(-c4cc(CCC[C@H](C)N)cc(Cl)c4F)[nH]c3nc2=O)cc1 [Compound 9]	0.5 µg/mL	0.25 µg/mL (≈ 0.421 µM)	0.5 µg/mL (≈ 0.843 µM)	0.25 µg/mL (≈ 0.421 µM)	0.25 µg/mL (≈ 0.421 µM)	0.25 µg/mL (≈ 0.421 µM)	0.25 µg/mL (≈ 0.421 µM)	0.5 µg/mL (≈ 0.843 µM)	0.25 µg/mL (≈ 0.421 µM)	0.5 µg/mL (≈ 0.843 µM)	0.25 µg/mL (≈ 0.421 µM)	2 µg/mL (≈ 3.37 µM)	2 µg/mL (≈ 3.37 µM)	4 µg/mL (≈ 6.74 µM)	0.5 µg/mL	–	–	–	–	–	–
NC[C@H]1O[C@H](O[C@H]2[C@H](O)[C@@H](O[C@H]3O[C@H](CO)[C@@H](O)[C@H](N)[C@H]3O)[C@H](N)C[C@@H]2N)[C@H](N)C[C@@H]1O [Tobramycin, reference compound]	1 µg/mL	1 µg/mL (≈ 2.14 µM)	64 µg/mL (≈ 137 µM)	1 µg/mL (≈ 2.14 µM)	1 µg/mL (≈ 2.14 µM)	16 µg/mL (≈ 34.2 µM)	0.5 µg/mL (≈ 1.07 µM)	> 128 µg/mL	≤ 0.25 µg/mL	8 µg/mL (≈ 17.1 µM)	≤ 0.25 µg/mL	0.5 µg/mL (≈ 1.07 µM)	0.5 µg/mL (≈ 1.07 µM)	128 µg/mL (≈ 274 µM)	> 128 µg/mL	–	–	–	–	–	–
CC(C)(O/N=C(\C(=O)N[C@@H]1C(=O)N2C(C(=O)[O-])=C(C[n+]3ccccc3)CS[C@H]12)c1csc(N)n1)C(=O)O [Ceftazidime, reference compound]	–	–	–	–	–	–	–	–	–	–	–	–	–	–	–	2 µg/mL (≈ 3.66 µM)	4 µg/mL (≈ 7.32 µM)	1 to 64 µg/mL (≈ 1.83 to 117 µM)	–	–	–
CN(C)c1cc(NC(=O)CNC(C)(C)C)c(O)c2c1C[C@H]1C[C@H]3[C@H](N(C)C)C(O)=C(C(N)=O)C(=O)[C@@]3(O)C(O)=C1C2=O [Tigecycline, reference compound]	0.25 µg/mL	0.125 µg/mL (≈ 0.213 µM)	0.5 µg/mL (≈ 0.854 µM)	0.25 µg/mL (≈ 0.427 µM)	0.125 µg/mL (≈ 0.213 µM)	≤ 0.06 µg/mL	0.25 µg/mL (≈ 0.427 µM)	1 µg/mL (≈ 1.71 µM)	0.5 µg/mL (≈ 0.854 µM)	2 µg/mL (≈ 3.41 µM)	0.125 µg/mL (≈ 0.213 µM)	8 µg/mL (≈ 13.7 µM)	8 µg/mL (≈ 13.7 µM)	> 32 µg/mL	≤ 0.06 µg/mL	–	–	–	–	–	–
CC(C)c1cc(CCC[C@H](C)N)cc(-c2cc3cn(-c4ccc([C@H](C)NCCCNC(=N)N)cc4)c(=O)nc3[nH]2)c1F [Compound 7]	1 µg/mL	0.5 µg/mL (≈ 0.87 µM)	1 µg/mL (≈ 1.74 µM)	0.5 µg/mL (≈ 0.87 µM)	0.5 µg/mL (≈ 0.87 µM)	0.25 µg/mL (≈ 0.435 µM)	0.5 µg/mL (≈ 0.87 µM)	1 µg/mL (≈ 1.74 µM)	0.5 µg/mL (≈ 0.87 µM)	4 µg/mL (≈ 6.96 µM)	0.5 µg/mL (≈ 0.87 µM)	8 µg/mL (≈ 13.9 µM)	4 µg/mL (≈ 6.96 µM)	–	2 µg/mL	2 µg/mL (≈ 3.48 µM)	4 µg/mL (≈ 6.96 µM)	1 to 8 µg/mL (≈ 1.74 to 13.9 µM)	0.06 µg/mL (≈ 0.104 µM)	0.12 µg/mL (≈ 0.209 µM)	MIC50 ([16]; read-out: B. anthracis MIC50): 0.12 µg/mL (≈ 0.209 µM); MIC90 ([16]; read-out: B. anthracis MIC90): 0.25 µg/mL (≈ 0.435 µM); MIC ([16]; read-out: B. anthracis MIC Range): 0.03 to 0.5 µg/mL (≈ 0.0522 to 0.87 µM); MIC50 ([17]; read-out: Y. pestis MIC50): 0.25 µg/mL (≈ 0.435 µM); MIC90 ([17]; read-out: Y. pestis MIC90): 0.5 µg/mL (≈ 0.87 µM); MIC ([17]; read-out: Y. pestis MIC Range): 0.06 to 1 µg/mL (≈ 0.104 to 1.74 µM); MIC [18]: 0.03 to 0.5 µg/mL (≈ 0.0522 to 0.87 µM); MIC50 ([19]; read-out: F. tularensis MIC50): 0.06 µg/mL (≈ 0.104 µM); MIC90 ([19]; read-out: F. tularensis MIC90): 0.12 µg/mL (≈ 0.209 µM); MIC ([19]; read-out: F. tularensis MIC Range): 0.03 to 0.5 µg/mL (≈ 0.0522 to 0.87 µM)
CC[C@H]1OC(=O)[C@H](C)[C@@H](O[C@H]2C[C@@](C)(OC)[C@@H](O)[C@H](C)O2)[C@H](C)[C@@H](O[C@@H]2O[C@H](C)C[C@H](N(C)C)[C@H]2O)[C@](C)(O)C[C@@H](C)CN(C)[C@H](C)[C@@H](O)[C@]1(C)O [Azithromycin, reference compound]	–	–	–	–	–	–	–	–	–	–	–	–	–	–	–	–	–	–	0.5 µg/mL (≈ 0.668 µM)	1 µg/mL (≈ 1.34 µM)	MIC [18]: 0.12 to 1 µg/mL (≈ 0.16 to 1.34 µM)
